Assay [1] deals with HL-60 cells. Kind of assay: HL-60 cell viability, Trypan blue exclusion assay. It counts as cell-based, human. The note with it: 50 nM, 48 hours. The source says: FIG. 11, panels A-D, illustrates ABT-737 Causes Apoptosis in HL-60 Cells; CyTOF Gating Scheme. […] Panel D) CyTOF gating scheme, used to perform analysis specifically on AML cells within AML patient marrow samples.

The subject of assay [2] is HL-60 cells. Kind of assay: Flow cytometry of apoptosis (c-PARP+, aqua amine+) in HL-60 cells. The class given is cell-based, human. As to conditions: 50 to 200 nM, 72 hours. The protocol:
AML cell lines were purchased from ATCC and maintained with IMDM (Gibco) supplemented with 10% FBS (Fisher Scientific) and 1% PSG (Gibco). Cells were plated at a density of 2-4×10^5 cells/ml, and treated with various doses of Compound A in 0.1% DMSO or 0.1% DMSO alone. Cell counts and viability were determined using the Vi-CELL XR Cell Viability Analyzer (Beckman Coulter). HL-60 and KG-1 cells overexpressing CREB or CBP were generated using lentiviral gene delivery with subsequent puromycin selection and FACs sorting for GFP. CREB knockdown was achieved by infecting cells with a lentivirus expressing the shRNA sequence 5′-[…]-3′ (SEQ ID NO:). For chemotherapy combination experiments, combination index values were calculated using median effects analysis on Calcusyn software. Human patient bone marrow samples were cultured in DMEM plus 20% FBS and 1×PSG, supplemented with recombinant GM-CSF (20 ng/ml), G-CSF (20 ng/ml), SCF (50 ng/ml), IL-3 (20 ng/ml), and IL-6 (10 ng/ml). Cells were plated at a concentration of 1×10^5 cells/ml in a 12-well plate. Vehicle (0.1% DMSO) or Compound A (2 μM) was added for up to 72 hours. All samples contained >85% AML blasts and were not sorted prior to performing experiments. […] Single cell suspensions of bone marrow culture were subsequently analyzed on a D×P10 flow cytometer (Cytek). […]
Background: A flow cytometer gives signals particle by particle.

For a further assay, the system named is KG-1 cells. Kind of assay: Viable cell count of engineered KG-1 cell lines (CREB KD, GFP, CREB OE, CBP OE). The class given is cell-based. As to conditions: same four KG-1 cell lines, 30 μM. On the procedure:
AML cell lines were purchased from ATCC and maintained with IMDM (Gibco) supplemented with 10% FBS (Fisher Scientific) and 1% PSG (Gibco). Cells were plated at a density of 2-4×10^5 cells/ml, and treated with various doses of Compound A in 0.1% DMSO or 0.1% DMSO alone. Cell counts and viability were determined using the Vi-CELL XR Cell Viability Analyzer (Beckman Coulter). HL-60 and KG-1 cells overexpressing CREB or CBP were generated using lentiviral gene delivery with subsequent puromycin selection and FACs sorting for GFP. CREB knockdown was achieved by infecting cells with a lentivirus expressing the shRNA sequence 5′-[…]-3′ (SEQ ID NO:). For chemotherapy combination experiments, combination index values were calculated using median effects analysis on Calcusyn software. Human patient bone marrow samples were cultured in DMEM plus 20% FBS and 1×PSG, supplemented with recombinant GM-CSF (20 ng/ml), G-CSF (20 ng/ml), SCF (50 ng/ml), IL-3 (20 ng/ml), and IL-6 (10 ng/ml). Cells were plated at a concentration of 1×10^5 cells/ml in a 12-well plate. Vehicle (0.1% DMSO) or Compound A (2 μM) was added for up to 72 hours. All samples contained >85% AML blasts and were not sorted prior to performing experiments. Immunostaining and flow cytometry analyses were performed according to standard procedures. All antibodies were purchased from BD Biosciences. Single cell suspensions of bone marrow culture were subsequently analyzed on a D×P10 flow cytometer (Cytek). Bone marrow from AML patients were collected through voluntary patient participation at University of California, Los Angeles (Los Angeles, Calif., USA) and Stanford University (Palo Alto, Calif., USA) in compliance with the Institutional Review Board regulations of each institution.
To test the effects of CREB inhibition on AML cells, four AML cell lines were treated with doses of Compound A ranging from 100 pM to 10 μM for 48 hours. […] KG-1 cells were less sensitive to Compound A and expressed lower levels of CREB compared to HL-60 cells (FIG. 2, panel A). CREB was overexpressed to determine whether sensitivity of KG-1 cells to Compound A could be increased. KG-1 cell lines in which CREB or CBP was overexpressed, or CREB was knocked down by shRNA, were generated (FIG. 2C). A KG-1 cell line expressing only GFP was used as a control. These cell lines were treated with a range of Compound A concentrations for 48 hours (FIG. 2D). Experiments were also performed to examine the efficacy of combining Compound A with cytarabine or daunorubicin, standard drugs used in AML therapy.

Assay [3] deals with CREB-driven promoter (CRE). Kind of assay: CREB-driven (CRE) luciferase reporter in KG-1 cells. It counts as cell-based. As to conditions: KG-1 cells, 6 hours; 3, 10 and 30 μM. The protocol:
(§1) KG-1 cell lines were created to express luciferase in a CREB-dependent or non-CREB-dependent fashion using lentiviral gene delivery. Cells were sorted for mCherry expression by flow cytometry and selected with puromycin. Luciferase activity was measured on a […] using the Promega Luciferase Activity Kit (Promega) per manufacturer's instructions following six hours of treatment with Compound A or 0.1% DMSO. The split Renilla luciferase complementation assay has been described previously (Li BX, and Xiao X. Discovery of a small-molecule inhibitor of the KIX-KID interaction. Chembiochem: a European journal of chemical biology. 2009; 10(17):2721-4). In this assay, the KID and KIX domains were fused to the N- and C-terminal regions of Renilla luciferase, respectively. Once KIX binds phosphorylated KID, the Renilla luciferase regions were brought together, resulting in luciferase activity.
(§2) To test the ability of Compound A to disrupt CREB-CBP binding in cells, a split Renilla luciferase complementation assay was performed. […] This early timepoint was selected to permit accurate reporter gene activity measurement prior to the onset of anticipated global cell dysfunction or death induced by Compound A. Treatment with 3 μM Compound A reduced luciferase activity by 33.2±7.7% at this timepoint. […] Thus, Compound A inhibits CREB function through disruption of CREB:CBP interaction.

In another assay the test system is CMV-driven promoter. In words: CMV-driven luciferase reporter in KG-1 cells. The class given is cell-based. As to conditions: 6 hours. The protocol:
as §1, §2

Two compounds from patent publication US20210205292A1, “INHIBITORS OF CREB-CBP INTERACTION FOR TREATMENT OF LEUKEMIA” (The Board of Trustees of the Leland Stanford Junior …, priority 2016, published 2021) can be followed below.

Entries after “also recorded” stand apart in the source; their conditions may differ.

Regarding `CN(C)CC[C@H](CSc1ccccc1)Nc1ccc(S(=O)(=O)NC(=O)c2ccc(N3CCN(Cc4ccccc4-c4ccc(Cl)cc4)CC3)cc2)cc1[N+](=O)[O-]` [ABT-737, reference compound], the cell viability result in the assay on HL-60 cells [1] is listed as “reduced cell viability”. Besides, the apoptosis entry in the assay on HL-60 cells [2] was “Apoptosis was induced”.
Turning to “N-methyl-(4-chlorophenyl)-3-hydroxy-naphthamide [Analog B, reference compound]”, the “viability or proliferation rate” value with KG-1 cells is reported as “no reduction in viability or proliferation rate”. Further, in assay [3], the CREB-driven luciferase activity result is reported as “No statistical difference; also recorded: no significant effect”. The CMV-driven luciferase expression result with CMV-driven promoter is listed as “No statistical difference; also recorded: no significant effect”.
